Test results reported in ChEMBL document CHEMBL5257052, “Aromatic Polyketides from the Mangrove-Derived Streptomyces sp. SCSIO 40069” (2023).
≈ marks a conversion by molar mass, not a printed value.

Experiments:
Assay type in all cases: functional
Acinetobacter baumannii = assay: Antibacterial activity against Acinetobacter baumannii ATCC 19606 measured after 16 hrs by broth microdilution method
Vibrio alginolyticus = assay: Antibacterial activity against Vibrio alginolyticus 13214 measured after 16 hrs by broth microdilution method
Staphylococcus aureus = assay: Antibacterial activity against Staphylococcus aureus ATCC 29213 measured after 16 hrs by broth microdilution method
Klebsiella pneumoniae = assay: Antibacterial activity against Klebsiella pneumoniae ATCC 13883 measured after 16 hrs by broth microdilution method
Micrococcus luteus = assay: Antibacterial activity against Micrococcus luteus SCSIO ML01 measured after 16 hrs by broth microdilution method

Compound	MIC (Acinetobacter baumannii)	MIC (Vibrio alginolyticus)	MIC (Staphylococcus aureus)	MIC (Klebsiella pneumoniae)	MIC (Micrococcus luteus)
CC(=O)c1c(O)cc2c3c(cccc13)C=C(C=O)O2	> 64 µg/mL	32 µg/mL (≈ 126 µM)	> 64 µg/mL	32 µg/mL (≈ 126 µM)	32 µg/mL (≈ 126 µM)
CC(=O)c1c(O)cc2c3c(cccc13)C=C([C@@H](O)[C@H](C)O)O2	> 64 µg/mL	> 64 µg/mL	> 64 µg/mL	> 64 µg/mL	> 64 µg/mL
CC(=O)CC1=Cc2cccc3c(C(C)=O)c(O)cc(c23)O1	> 64 µg/mL	32 µg/mL (≈ 113 µM)	8 µg/mL (≈ 28.3 µM)	8 µg/mL (≈ 28.3 µM)	8 µg/mL (≈ 28.3 µM)
CC(=O)c1c(O)cc2c3c(cccc13)C=C([C@H](O)[C@H](C)O)O2	> 64 µg/mL	> 64 µg/mL	> 64 µg/mL	> 64 µg/mL	> 64 µg/mL
CC(=O)c1c(O)cc2c3c(cccc13)C=C([C@@H](O)[C@@H](C)O)O2	> 64 µg/mL	> 64 µg/mL	> 64 µg/mL	> 64 µg/mL	> 64 µg/mL
CC(=O)c1c(O)cc2c3c(cccc13)C=C([C@H](O)[C@@H](C)O)O2	32 µg/mL (≈ 107 µM)	64 µg/mL (≈ 213 µM)	> 64 µg/mL	16 µg/mL (≈ 53.3 µM)	> 64 µg/mL
CC(=O)c1c(O)cc2c3c(cccc13)C=C(C)O2	> 64 µg/mL	64 µg/mL (≈ 266 µM)	> 64 µg/mL	> 64 µg/mL	64 µg/mL (≈ 266 µM)
CC(=O)c1c(O)cc2c3c(cccc13)C=C(CO)O2	64 µg/mL (≈ 250 µM)	> 64 µg/mL	8 µg/mL (≈ 31.2 µM)	64 µg/mL (≈ 250 µM)	8 µg/mL (≈ 31.2 µM)
COc1cc(Cc2cnc(N)nc2N)cc(OC)c1OC [TRIMETHOPRIM]	0.125 µg/mL (≈ 0.431 µM)	0.125 µg/mL (≈ 0.431 µM)	2 µg/mL (≈ 6.89 µM)	0.125 µg/mL (≈ 0.431 µM)	2 µg/mL (≈ 6.89 µM)
